Results as given in ChEMBL document CHEMBL3430912, “GSK Tres Cantos Anti-Kinetoplastid Screening (TCAKS) Data”.

Tests used:
[1] = system: Trypanosoma cruzi; test: GSK_TCAKS: pIC50 Trypanosoma cruzi viability assay using beta-GAL activity. This assay was run at single shot at 5uM compound concentration per well. The biological reagents consisted of NIH-3T3 host cells and trypomastigotes parasitic cells; both cell types were set to a 3.3 * 10^5 cells/mL dilution in assay DMEM by means of a CASY cell counter device using a 60um capillary. 6 uL of the mixture were dispensed per well (about 1 * 10^3 host-cells and 1 * 10^3 parasites) with a Multidrop Combi dispenser. […] In all wells, the percentage of DMSO never exceeded 0.5%. Plates incubated for four days at 37C, 5% CO2. The substrate used for the assay fluorescence intensity (FLINT) readout was resorufin-beta-D-galactopiranoside (Sigma-Aldrich) at 5uM per well. It was diluted in PBS supplemented with the soft detergent Igepal (Fluka).; assay type: functional, organism-based, Mus musculus; details: Tulahuen, NIH3T3
[2] = system: Trypanosoma cruzi; test: (§1) GSK_TCAKS: pIC50 Trypanosoma cruzi Imaging: Infected Cells. […] Cells were then washed once with PBS before infection. T. cruzi trypomastigotes, collected at days 5 to 8 after infection from LLC-MK2 parasite infected cultures, were allowed to swim out for 4h at 37C from a centrifuged pellet (2,500 rpm/10 min/room temperature). Trypomastigotes were then collected and counted in a CASY Cell Counter. Trypomastigotes, in supplemented DMEM, were added to H9c2 cultures in a multiplicity of infection of 1 and incubated for 18 h. Cells were washed once with PBS before incubation of the infected H9c2 monolayer with trypsin (Life-Technologies) to detach cells from the flask. Cells were counted in a CASY Cell Counter using a 150 um capillary and their density set at 5 * 10^4 cells per mL in supplemented assay DMEM. Infected H9c2 were dispensed into 384-well poly-lysine coated assay plates at 50uL per well using a Multidrop Combi dispenser. After seeding them, the plates were incubated at 37C, 5% CO2 for 72h. Cultures were then fixed and stained by addition of 50 uL of a solution containing 8% formaldehyde and 4 uM DRAQ5 DNA dye (BioStatus, UK) per well. […] Five images were collected per well for reliable statistical analysis. Automated image analysis was performed with a script developed on Acapella High Content Imaging and Analysis Software (PerkinElmer). Output: percentage of infected cells per well as a second infection marker.; assay type: functional, organism-based, Rattus norvegicus; details: H9c2, 4 h
[3] = system: Trypanosoma cruzi; test: GSK_TCAKS: pIC50 Trypanosoma cruzi Imaging: Amastigotes/Cell. […] Cells were then washed once with PBS before infection. T. cruzi trypomastigotes, collected at days 5 to 8 after infection from LLC-MK2 parasite infected cultures, were allowed to swim out for 4h at 37C from a centrifuged pellet (2,500 rpm/10 min/room temperature). Trypomastigotes were then collected and counted in a CASY Cell Counter. Trypomastigotes, in supplemented DMEM, were added to H9c2 cultures in a multiplicity of infection of 1 and incubated for 18 h. Cells were washed once with PBS before incubation of the infected H9c2 monolayer with trypsin (Life-Technologies) to detach cells from the flask. Cells were counted in a CASY Cell Counter using a 150 um capillary and their density set at 5 * 10^4 cells per mL in supplemented assay DMEM. Infected H9c2 were dispensed into 384-well poly-lysine coated assay plates at 50uL per well using a Multidrop Combi dispenser. After seeding them, the plates were incubated at 37C, 5% CO2 for 72h. Cultures were then fixed and stained by addition of 50 uL of a solution containing 8% formaldehyde and 4 uM DRAQ5 DNA dye (BioStatus, UK) per well. […] Five images were collected per well for reliable statistical analysis. Automated image analysis was performed with a script developed on Acapella High Content Imaging and Analysis Software (PerkinElmer). Output: number of amastigotes per cell as infection level measurement.; assay type: functional, organism-based, Rattus norvegicus; details: H9c2, 4 h
[4] = system: Trypanosoma cruzi; test: as §1, with “H2C9” for “Trypanosoma cruzi”, “H9c2 Host Cardiomyocytes.” for “Infected Cells.”, “Number” for “percentage”, “H9c2 Host Cardiomyocytes nuclei to determine drug-related cytotoxicity.” for “infected cells per well as a second infection marker.”; assay type: functional, organism-based, Rattus norvegicus; details: H9c2, 4 h
[5] = system: Leishmania donovani; test: GSK_TCAKS: pIC50 Leishmania donovani viability assay using fluorescence intensity. Assay plates (1536-well) were prepared by adding 30nL per well of compound. For single shot assay, the final compound concentration was 5uM. […] Briefly, eGFP LdBOB axenic amastigotes were harvested, fixed and counted in a CASY cell counter (Roche-Applied Science). A final concentration of 1.5 * 10^5 cells per well were prepared in amastigote media containing 500 U/mL penicillin/streptomycin (Invitrogen) and 6uL was dispensed to each experimental well using a Multidrop Combi dispenser (Thermo Scientific). 6uL of assay media was dispensed to control columns used as reference for 100% compound response. Following incubation for 72 h at 37C, 5% CO2, 2 uL of resazurin was added to each well at a final concentration of 0.5 mM in phosphate buffered saline (PBS) with IGEPAL (Sigma-Aldrich), 0.05% (v/v).; assay type: functional, organism-based
[6] = system: Leishmania donovani; test: (§2) GSK_TCAKS: pIC50 Leishmania donovani Imaging: Infected Macrophages. Assay plates (384-well) were prepared by adding 250nL of compound to each well. For single shot assay, the final compound concentration was 5 uM. […] Automated image analysis was performed with a script developed on Acapella High Content Imaging and Analysis Software (PerkinElmer). Output: Percent of infected macrophage cells were reported for each well.; assay type: functional, organism-based, Homo sapiens; details: THP-1
[7] = system: Leishmania donovani; test: as §2, with “Amastigotes/Macrophages.” for “Infected Macrophages.”, “Average number” for “Percent”, “amastigotes per” for “infected”, “cell” for “cells”; assay type: functional, organism-based, Homo sapiens; details: THP-1
[8] = system: Leishmania donovani; test: as §2, with “THP-1 Host” for “Infected”, “THP-1 cell count” for “Percent of infected macrophage cells”; assay type: functional, organism-based, Homo sapiens
[9] = system: Trypanosoma brucei brucei; test: GSK_TCAKS: pIC50 Trypanosoma brucei viability assay using fluorescence intensity. Assay plates (1536-well) were prepared by dispensing 25nL of compound solution per well using an Echo acoustic dispenser (Labcyte).; assay type: functional, organism-based; details: Lister 427, 2 h
[10] = system: Trypanosoma brucei brucei; test: GSK_TCAKS: pIC50 Trypanosoma brucei viability assay using luminiscence. Assay plates (1536-well) were prepared. T. brucei cultures were harvested and counted in a CASY cell counter. A parasite suspension was prepared at a final concentration of 5 * 10^4 cells/mL in complete HMI9 medium and 6uL was dispensed to all wells containing compounds using a Multidrop Combi dispenser. 6uL of HMI9 media with 0.4% DMSO were dispensed to control columns. Plates were incubated for 24 h at 37C, 5% CO2 then tempered for 10 min at room temperature. ATP content was quantified by adding 4 uL of CellTiter-Glo Reagent (Promega) according to the manufacturer's instructions. Luminescence was measured using a ViewLux.; assay type: functional, organism-based; details: Lister 427, CASY
[11] = GSK_TCAKS: pIC50 HepG2 human cell line viability assay using luminiscence. […] Seeding density was checked to ensure that new mono-layers were not more than 50% confluent at the time of harvesting. Cell suspension was added to 500 mL of the same medium at a final density of 1.2 * 10^5 cells/mL. This cell suspension was dispensed (25 uL, 3000 cells per well) into 384-well clear-bottom plates using a Multidrop Combi dispenser. Prior to addition of the cell suspension, the screening compounds (250 nL) were pre-dispensed into the plates with an Echo liquid handler. Plates were incubated for 48 h at 37C, 5% CO2. After incubation, plates equilibrated at room temperature for 30 min before proceeding to develop the luminescent signal. The signal developer, CellTiter-Glo Reagent, was allowed to equilibrate at room temperature for 30 min and added to the plates (25uL per well) using a Multidrop Combi dispenser. Plates were left for 10 min at room temperature for stabilization and then read using a ViewLux.; assay type: toxicity, cell-based
[12] = molecular target: Sterol 14-alpha demethylase (Trypanosoma cruzi (strain CL Brener), UniProt Q7Z1V1); test: GSK_TCAKS: pIC50 CYP51 from Trypanosoma cruzi.; assay type: functional
Sterol 14-alpha demethylase, sequence (Q7Z1V1 whole entry): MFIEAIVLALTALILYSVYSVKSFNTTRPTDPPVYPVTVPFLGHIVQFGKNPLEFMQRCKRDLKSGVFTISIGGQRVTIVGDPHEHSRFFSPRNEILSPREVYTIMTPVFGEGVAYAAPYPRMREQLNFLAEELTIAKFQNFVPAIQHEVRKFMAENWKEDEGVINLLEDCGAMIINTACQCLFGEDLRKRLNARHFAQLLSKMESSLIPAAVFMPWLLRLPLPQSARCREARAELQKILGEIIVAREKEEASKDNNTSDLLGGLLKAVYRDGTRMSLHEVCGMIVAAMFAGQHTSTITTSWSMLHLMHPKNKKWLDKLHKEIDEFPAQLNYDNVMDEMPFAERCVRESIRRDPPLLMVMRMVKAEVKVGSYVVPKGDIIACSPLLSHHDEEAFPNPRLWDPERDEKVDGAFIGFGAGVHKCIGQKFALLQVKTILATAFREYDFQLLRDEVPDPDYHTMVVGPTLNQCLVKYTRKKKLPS

SMILES | IC50 [1] [µM] | IC50 [2] [µM] | IC50 [3] [µM] | IC50 [4] [µM] | IC50 [5] [µM] | IC50 [6] [µM] | IC50 [7] [µM] | IC50 [8] [µM] | IC50 [9] [µM] | IC50 [10] [µM] | IC50 at 48 h [11] [µM] | IC50 [12] [µM]
Cc1ccc(NC(=O)c2ccnc(N3CCCC3)c2)cc1-c1ccsc1C(N)=O | 12.6 | 12.6 | 7.94 | > 50.1 | > 50.1 | > 50.1 | > 50.1 | > 50.1 | 0.0631 | 0.0631 | > 100 | 1.26
NS(=O)(=O)c1ccc(Nc2nccc(-c3cnn4ncccc34)n2)cc1 | 2.51 | 15.8 | 0.794 | 0.316 | 0.794 | 2 | 1 | 0.251 | 0.0794 | 0.158 | > 100 | > 100
CNc1nc(C)nc(N2CCc3cc(C(=O)NCc4ccc(-c5cc[nH]n5)cc4Cl)ccc32)n1 | > 50.1 | > 50.1 | > 50.1 | 20 | 2.51 | 0.316 | 0.398 | > 50.1 | 12.6 | 10 | > 100 | 5.01
CN(CC1CCCO1)S(=O)(=O)c1ccc(C(=O)Nc2nc(-c3ccccn3)cs2)cc1 (centres undefined) | 1.58 | 2 | 1.26 | 20 | 1.26 | 6.31 | 3.16 | 7.94 | 0.501 | 0.631 | 63.1 | 7.94
CCN(CC)c1nc(Nc2ccncc2)nc2ccccc12 | 0.126 | 0.0794 | 0.00501 | 7.94 | 0.794 | 6.31 | 2 | 25.1 | 2.51 | 5.01 | 50.1 | > 100
COc1ncc(-c2ccc3nccc(-c4ccncc4)c3c2)cc1NS(C)(=O)=O | 1.58 | 25.1 | 12.6 | 5.01 | 3.16 | 2.51 | 0.631 | 3.16 | 0.316 | 1 | > 100 | 79.4
Cc1nn2c(NCCCO)c3c(nc2c1-c1cccs1)CCC3 | 15.8 | 50.1 | 5.01 | > 50.1 | 2 | > 50.1 | > 50.1 | > 50.1 | 0.316 | 0.398 | > 100 | 25.1
O=C(NCCc1csc(-c2ccc(F)cc2)n1)c1cccs1 | 0.398 | 0.398 | 0.251 | > 50.1 | > 50.1 | > 50.1 | 20 | > 50.1 | 0.251 | 0.2 | > 100 | 25.1
CC(=O)Nc1ccc(CN2CCC(N3CC(c4ccccc4)(c4ccccc4)OCC3=O)CC2)cc1 | 12.6 | 31.6 | 20 | > 50.1 | 0.501 | 25.1 | 20 | 39.8 | 0.316 | 0.398 | 79.4 | > 100
CN(C)S(=O)(=O)c1ccc(Cl)c(C(=O)Nc2nc(-c3ccccn3)cs2)c1 | 1.58 | 2 | 1.26 | 6.31 | 2 | 10 | 5.01 | 6.31 | 0.501 | 0.398 | > 100 | 31.6
CN(C)CCN(C)Cc1ccc(Cl)cc1NS(=O)(=O)c1ccc(Cl)c(Cl)c1 | 1.12 | 2 | 2 | 5.01 | 5.01 | 6.31 | 3.98 | 31.6 | 7.94 | 3.98 | 31.6 | 31.6
CC(C)n1c(-c2nonc2N)nc2cccc(OCCN3CCCC3)c21 | 10 | 15.8 | 25.1 | 31.6 | > 50.1 | 31.6 | 20 | 31.6 | 0.794 | 0.794 | > 100 | 39.8
COc1ccc(Nc2nc(-c3ccccn3)cc(N3CCCC(O)C3)n2)cc1 (centres undefined) | 0.631 | 5.01 | 7.94 | 3.98 | 2.51 | 1 | 0.794 | 25.1 | 3.98 | 12.6 | 39.8 | 50.1
CCOC(=O)c1cn[nH]c1S(=O)(=O)N1CCC1c1ccccc1 (centres undefined) | > 50.1 | > 50.1 | > 50.1 | > 50.1 | > 50.1 | > 50.1 | > 50.1 | > 50.1 | 0.631 | 0.794 | > 100 | 50.1
Cc1cc(Nc2cc(C3CC3)[nH]n2)nc(N2CCC[C@H]2C(N)=O)n1 | 0.126 | 0.0631 | 0.02 | 0.126 | 0.631 | 0.2 | 0.0794 | 0.126 | 0.0126 | 0.0631 | > 100 | > 100
Oc1cccnc1-c1nc(Cc2ccccc2)n[nH]1 | 6.31 | 7.94 | 6.31 | 15.8 | 2 | 3.16 | 2 | 15.8 | 5.01 | 10 | 79.4 | > 100
O=C1OCc2ccc(Nc3nccc(-c4cnn5ncccc45)n3)cc21 | 0.0251 | 0.0631 | 0.0316 | 0.0251 | 0.0631 | 0.0158 | 0.0126 | 0.00794 | 0.00398 | 0.02 | > 100 | > 100
